Assay results from the NIST ThermoML archive (doi:10.1016/j.jct.2006.06.001).

Legend:
[1] = xn = mol fraction of the nth substance listed; settings: 81.5 kPa, Liquid
[2] = 81.5 kPa, Liquid

COCCO [2-methoxyethan-1-ol] + CC(O)CO
mass density [kg/m3], [1]
Settings | 293.15 K | 303.15 K | 313.15 K | 323.15 K | 333.15 K | 343.15 K
x1 = 0.0745 | 1030.87 | 1023.34 | 1015.67 | 1007.87 | 999.89 | 991.75
x1 = 0.1669 | 1024.12 | 1016.42 | 1008.59 | 1000.6 | 992.48 | 984.19
x1 = 0.2365 | 1019.06 | 1011.22 | 1003.26 | 995.17 | 986.94 | 978.54
x1 = 0.3194 | 1013.05 | 1005.07 | 996.96 | 988.73 | 980.35 | 971.81
x1 = 0.3946 | 1007.6 | 999.48 | 991.25 | 982.88 | 974.38 | 965.73
x1 = 0.4791 | 1001.49 | 993.22 | 984.85 | 976.34 | 967.7 | 958.9
x1 = 0.5625 | 995.51 | 987.1 | 978.58 | 969.93 | 961.14 | 952.2
x1 = 0.6331 | 990.47 | 981.94 | 973.3 | 964.53 | 955.63 | 946.55
x1 = 0.7266 | 983.82 | 975.12 | 966.32 | 957.38 | 948.31 | 939.08
x1 = 0.8081 | 978.11 | 969.27 | 960.32 | 951.24 | 942.02 | 932.64
x1 = 0.8752 | 973.43 | 964.47 | 955.4 | 946.21 | 936.87 | 927.36
x1 = 0.9658 | 967.23 | 958.12 | 948.88 | 939.52 | 930.01 | 920.33

COCCO [2-methoxyethan-1-ol] + CCCO
mass density [kg/m3], [1]
Settings | 293.15 K | 303.15 K | 313.15 K | 323.15 K | 333.15 K | 343.15 K
x1 = 0.0845 | 817.73 | 809.55 | 801.23 | 792.73 | 783.99 | 774.97
x1 = 0.1559 | 829.58 | 821.29 | 812.86 | 804.25 | 795.42 | 786.31
x1 = 0.2391 | 843.36 | 834.94 | 826.39 | 817.66 | 808.72 | 799.51
x1 = 0.3146 | 855.77 | 847.26 | 838.61 | 829.78 | 820.75 | 811.47
x1 = 0.4015 | 869.91 | 861.29 | 852.53 | 843.61 | 834.47 | 825.11
x1 = 0.479 | 882.45 | 873.74 | 864.89 | 855.88 | 846.68 | 837.25
x1 = 0.5597 | 895.42 | 886.62 | 877.69 | 868.6 | 859.32 | 849.83
x1 = 0.6365 | 907.69 | 898.82 | 889.81 | 880.65 | 871.31 | 861.76
x1 = 0.7183 | 920.73 | 911.78 | 902.7 | 893.47 | 884.08 | 874.48
x1 = 0.7939 | 932.73 | 923.71 | 914.56 | 905.28 | 895.83 | 886.17
x1 = 0.8775 | 945.88 | 936.8 | 927.59 | 918.24 | 908.74 | 899.05
x1 = 0.9553 | 957.99 | 948.84 | 939.57 | 930.18 | 920.63 | 910.9

CCCO [propan-1-ol]
[2]
Settings | mass density [kg/m3]
293.15 K | 803.61
303.15 K | 795.57
313.15 K | 787.39
323.15 K | 779.02
333.15 K | 770.42
343.15 K | 761.51

CC(C)O [propan-2-ol]
[2]
Settings | mass density [kg/m3]
293.15 K | 785.1
303.15 K | 776.63
313.15 K | 767.85
323.15 K | 758.68
333.15 K | 749.06
343.15 K | 738.91
